From patent US8933070B2, “Methods of targeting PTEN mutant diseases and compositions therefor” (University Health Network, priority 2010, dated 2015)
Several values for one entry are separate records, joined by “and”; a condition that tells them apart may be missing. Equal entries are not always repeated.

Assays:
human PLK4 = target: T1, human PLK4 (Homo sapiens, UniProt O00444); assay: PLK4 inhibition assay (indirect ELISA); type: biochemical
T1 construct: amino terminal GST fusion of residues 1-391 of human PLK4; made in house; host or cells: E. coli
T1 sequence (O00444 1-391): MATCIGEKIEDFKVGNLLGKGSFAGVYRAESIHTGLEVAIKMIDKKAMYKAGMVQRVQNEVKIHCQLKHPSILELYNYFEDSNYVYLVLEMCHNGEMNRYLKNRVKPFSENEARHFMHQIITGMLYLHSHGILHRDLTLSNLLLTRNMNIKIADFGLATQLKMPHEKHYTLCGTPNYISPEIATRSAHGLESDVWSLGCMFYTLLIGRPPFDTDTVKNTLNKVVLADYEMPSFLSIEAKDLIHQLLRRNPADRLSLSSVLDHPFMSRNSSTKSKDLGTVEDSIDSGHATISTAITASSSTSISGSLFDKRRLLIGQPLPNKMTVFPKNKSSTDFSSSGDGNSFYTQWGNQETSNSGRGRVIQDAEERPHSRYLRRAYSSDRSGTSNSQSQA
Method: The protein was purified from clarified cell extracts after induction at 15° C. overnight using glutathione sepharose, gel permeation chromatography, and ion exchange (Resource Q). The resulting protein was dephosphorylated with lambda phosphatase (NEB cat# P0753), and resolved from the phosphatase using gluthione sepharose. The dephosphorylated GST-PLK4 was stored in aliquots at −80° C. until use.
PLK4 activity was measured using an indirect ELISA detection system. […] The colourimetric reaction was allowed to continue for 5 minutes, followed by addition of stop solution (0.5 N sulphuric acid), and quantified by detection at 450 nm with either a monochromatic or filter based plate reader (Molecular Devices M5 or Beckman DTX880, respectively).
Compounds were pre-incubated in the presence of enzyme for 15 minutes prior to addition of ATP and the activity remaining quantified using the above described activity assay. […] The IC50 value was determined using a non-linear 4 point logistic curve fit (XLfit4, IDBS) with the formula; (A+(B/(1+((x/C)^D)))), where A=background value, B=range, C=inflection point, D=curve fit parameter.

Aurora A = target: T2, Aurora A (Homo sapiens, UniProt O14965); assay: Aurora A inhibition assay (Z-Lyte); type: biochemical
T2 construct: purchased Invitrogen PV3612
T2 sequence (O14965 1-403): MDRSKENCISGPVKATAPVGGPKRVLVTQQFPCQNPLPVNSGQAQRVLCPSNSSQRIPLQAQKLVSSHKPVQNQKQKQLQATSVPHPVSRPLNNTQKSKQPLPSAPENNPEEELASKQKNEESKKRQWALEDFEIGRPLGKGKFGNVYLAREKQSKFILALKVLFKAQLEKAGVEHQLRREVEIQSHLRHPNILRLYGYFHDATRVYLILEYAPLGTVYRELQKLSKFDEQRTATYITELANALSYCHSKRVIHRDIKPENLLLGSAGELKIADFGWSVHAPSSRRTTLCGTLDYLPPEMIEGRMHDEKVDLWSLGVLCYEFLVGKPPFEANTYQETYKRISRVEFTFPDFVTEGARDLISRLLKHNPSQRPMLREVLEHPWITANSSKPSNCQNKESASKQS
Method: Aurora A inhibition was determined using the Z-Lyte assay kit from Invitrogen. The assay was performed using the recommended manufacturer's instructions with 20 nM ATP and 12 nM Aurora A (Invitrogen cat #PV3612). The % inhibition values were determined according to the manufacturer's directions and IC50 values were obtained using a non-linear 4 point logistic curve fit (XLfit4, IDBS)

[1] = tested on: HCT116 p53 negative cells
Method: (§1) Breast cancer cells were seeded at various concentrations, ranging from 1×10^5 to 2.5×10^5 per well according to cell growth rate, into 6-well plates 24 hours before siRNA and/or compound treatment. Each 10 mM stock solution in 100% DMSO of the compounds was diluted with Opti-MEM I Reduced-Serum Medium (Invitrogen, Canada) and added to the cells to the stated final concentrations. Control cells received 0.001% DMSO alone. Where indicated, 40 nM PTEN siRNAs (siPTEN) (QIAGEN, Canada; sense sequence: 5′-[…]-3′) or 40 nM control siRNA (siCTRL) (QIAGEN, Canada) were transfected into cells using Lipofectamine 2000 according to the manufacturer's protocol (Invitrogen, Canada). Prior to analysis, cells were trypsinized, washed in 1× phosphate-buffered saline (PBS) and centrifuged. […] All samples were read in a FACSCalibur flow cytometer (Becton, Dickinson and Company), and data analyzed using FloJo software (Tree Star, Inc.).
(§2) To explore if PTEN status may be a contributing factor in determining if PLK4 inhibitor treatment induces a cell death response in cancer cells, a test of whether reducing the levels of endogenous PTEN would sensitize HCT116 cells (either p53 wild-type or negative) to PLK4 compound-induced death (FIG. 7) was performed. […] After two days of inhibitor treatment, the percentage of sub-G1 cells was measured by cell cycle analysis.

[2] = tested on: HCT116 p53 wild-type cells
Method: as §1, §2

AMPKalpha = assay: Kinase selectivity assay (CEREP, HTRF); type: biochemical, human
Method: (§3) The inhibitory activity of selected compounds was evaluated against a panel of 45 different kinase enzymes by CEREP, France. The assays were performed using standard HTRF assay methods as documented by CEREP against the human orthologues of Abl kinase, Akt1/PKBa, AMPKa, BMX kinase (Etk), Brk, CaMK2a, CaMK4, CDC2/CDK1 (cycB), CHK1, CHK2, c-Met kinase, CSK, EphB4 kinase, ERK1, ERK2 (P42mapk), FGFR2 kinase, FGFR4 kinase, FLT-1 kinase (VEGFR1), FLT-3 kinase, Fyn kinase, IGF1R kinase, IRK (InsR), JNK 2, KDR kinase (VEGFR2), Lck kinase, Lyn kinase, MAPKAPK2, MEK1/MAP2K1, p38a kinase, p38d kinase, p38g kinase, PDGFRb kinase, PDK1, PKA, PKCa, PKCb1, PKCb2, PKCg, Ret kinase, ROCK2, RSK2, Src kinase, Syk, and TRKA. The % Inhibition was determined by the formula; % Inhibition=100×(1−(experimental value−background value)/(high activity control−background value)).

FGFR2 = FGFR2 (Homo sapiens, UniProt P21802); assay: Kinase selectivity assay (CEREP, HTRF); type: biochemical; details: read-out: % Inhibition at 10 μM Concentration
Sequence of FGFR2 (P21802 22-821): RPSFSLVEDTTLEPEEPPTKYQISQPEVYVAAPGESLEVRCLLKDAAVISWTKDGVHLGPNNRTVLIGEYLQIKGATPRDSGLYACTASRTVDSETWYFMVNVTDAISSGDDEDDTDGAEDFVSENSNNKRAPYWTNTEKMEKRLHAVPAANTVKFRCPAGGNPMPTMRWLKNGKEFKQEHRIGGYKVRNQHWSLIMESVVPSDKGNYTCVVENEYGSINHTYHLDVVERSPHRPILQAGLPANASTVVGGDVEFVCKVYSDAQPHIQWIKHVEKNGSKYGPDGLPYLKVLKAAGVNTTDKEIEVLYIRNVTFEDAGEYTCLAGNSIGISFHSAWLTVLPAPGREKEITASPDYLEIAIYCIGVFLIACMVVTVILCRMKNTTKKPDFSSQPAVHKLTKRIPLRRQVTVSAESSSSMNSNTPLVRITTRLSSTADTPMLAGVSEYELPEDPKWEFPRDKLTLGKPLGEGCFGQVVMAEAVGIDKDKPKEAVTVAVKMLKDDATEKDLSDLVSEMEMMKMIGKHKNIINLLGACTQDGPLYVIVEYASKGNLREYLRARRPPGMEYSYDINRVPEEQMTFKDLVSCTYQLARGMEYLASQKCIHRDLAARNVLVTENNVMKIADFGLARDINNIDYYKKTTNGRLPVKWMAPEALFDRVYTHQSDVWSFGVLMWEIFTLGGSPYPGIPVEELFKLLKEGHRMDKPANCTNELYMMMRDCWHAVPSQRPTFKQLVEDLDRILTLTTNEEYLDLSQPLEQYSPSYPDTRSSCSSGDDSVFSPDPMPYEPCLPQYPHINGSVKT
Method: as §3

KDR (VEGFR2) = KDR (VEGFR2) (Homo sapiens, UniProt P35968); assay: Kinase selectivity assay (CEREP, HTRF); type: biochemical; details: read-out: % Inhibition at 10 μM Concentration
Sequence of KDR (VEGFR2) (P35968 20-1356): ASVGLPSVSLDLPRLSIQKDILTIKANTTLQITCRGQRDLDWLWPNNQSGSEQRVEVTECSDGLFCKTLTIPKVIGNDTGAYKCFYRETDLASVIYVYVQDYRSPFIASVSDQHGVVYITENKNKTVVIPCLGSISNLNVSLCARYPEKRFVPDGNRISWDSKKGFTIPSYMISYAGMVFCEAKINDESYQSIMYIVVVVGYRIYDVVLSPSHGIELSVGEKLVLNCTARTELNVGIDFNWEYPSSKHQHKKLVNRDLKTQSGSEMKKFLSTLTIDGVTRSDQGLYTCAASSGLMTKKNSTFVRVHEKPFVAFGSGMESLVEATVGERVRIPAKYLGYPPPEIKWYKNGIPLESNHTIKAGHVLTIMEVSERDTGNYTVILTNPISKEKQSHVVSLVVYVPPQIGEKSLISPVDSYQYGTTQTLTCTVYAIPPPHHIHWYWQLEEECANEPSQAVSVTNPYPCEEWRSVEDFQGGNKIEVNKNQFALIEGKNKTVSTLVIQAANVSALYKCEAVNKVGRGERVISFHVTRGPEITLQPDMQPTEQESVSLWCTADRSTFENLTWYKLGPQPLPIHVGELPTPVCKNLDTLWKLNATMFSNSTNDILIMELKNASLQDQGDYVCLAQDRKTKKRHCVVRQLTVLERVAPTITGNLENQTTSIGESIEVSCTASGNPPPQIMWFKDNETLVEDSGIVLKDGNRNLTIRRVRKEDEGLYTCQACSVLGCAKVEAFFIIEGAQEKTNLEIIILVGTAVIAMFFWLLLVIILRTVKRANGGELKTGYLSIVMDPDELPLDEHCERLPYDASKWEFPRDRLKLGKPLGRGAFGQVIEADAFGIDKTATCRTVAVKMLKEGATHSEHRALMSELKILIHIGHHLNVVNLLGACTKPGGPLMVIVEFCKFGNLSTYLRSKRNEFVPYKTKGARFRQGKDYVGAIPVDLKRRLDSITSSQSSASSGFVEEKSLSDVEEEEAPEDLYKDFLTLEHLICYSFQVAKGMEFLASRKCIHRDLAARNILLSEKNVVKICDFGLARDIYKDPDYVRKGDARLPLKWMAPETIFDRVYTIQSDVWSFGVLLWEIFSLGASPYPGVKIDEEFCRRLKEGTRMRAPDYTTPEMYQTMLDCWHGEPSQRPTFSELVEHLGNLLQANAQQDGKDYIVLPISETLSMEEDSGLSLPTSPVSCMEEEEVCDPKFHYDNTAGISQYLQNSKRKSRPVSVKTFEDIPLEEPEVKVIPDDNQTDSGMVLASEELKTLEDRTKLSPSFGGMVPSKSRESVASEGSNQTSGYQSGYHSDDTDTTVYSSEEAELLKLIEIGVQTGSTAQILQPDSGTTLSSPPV
Method: as §3

COc1ccc2c(c1)[C@@]1(C[C@@H]1c1ccc3c(-c4ccc(N5CCN(C)CC5)nc4)n[nH]c3c1)C(=O)N2 (racemic) [Compound 2]
IC50 (human PLK4): < 5 µM
inhibition at 10 µM (Aurora A; dose of 10 μM, read-out: Aurora A relative inhibition percentage): < 50%
percentage of sub-G1 cells [1]: 5.4% and 10.3%
percentage of sub-G1 cells [2]: 7.1% and 15.9%

CN(C)Cc1ccc(/C=C/c2n[nH]c3cc([C@H]4C[C@@]45C(=O)Nc4ccccc45)ccc23)cc1 (racemic) [Compound 35]
% Inhibition at 10 μM Concentration (AMPKalpha): 69%

COc1ccc2c(c1)/C(=C\c1ccc3c(/C=C/c4ccc(N5CCN(C)CC5)nc4)n[nH]c3c1)C(=O)N2 [Compound 3]
IC50 (Aurora A; read-out: IC50 Ranges Aurora A): < 5 µM
inhibition at 10 µM (FGFR2): 4%
inhibition at 10 µM (KDR (VEGFR2)): 32%
